Results published in US20150274639A1, “METHODS OF USE FOR COMPOSITIONS COMPRISING A BIOCIDAL POLYAMINE” (Curza Global, LLC, priority 2013, published 2015).
Several values for one entry are separate records, joined by “and”; a condition that tells them apart may be missing. Equal values may be shown once.

Legend:
[1] = tested on: P. aeruginosa; experiment: MIC in CAMHB, 96-well plate (10^5 to 10^2 CFU/mL in 24 hours); format: cell-based; conditions: Pseudomonas aeruginosa
Protocol: (§1) To determine the MIC of polyamine compounds, the protocol described herein was used.
(§2) In brief, a 0.5 McFarland of each bacterial isolate was made. A 0.5 McFarland is a measure of turbidity in a liquid sample that contains approximately 1×10̂^8 CFU/mL. The 0.5 McFarland standard was diluted in cation adjusted Mueller Hinton Broth (CAMHB), and […], of broth were added to a well of a 96-well plate. In addition, 50 μL of CAMHB that contained a desired concentration of antimicrobial were also added to the well for a final volume of 100 and a final concentration of approximately 5×10^4 CFU/well (which equated to approximately 5×10^5 CFU/mL). Each well contained a desired amount of polyamine compound in order to experimentally determine the MIC. Each 96-well plate was incubated at 37° C. for 24 hours. The contents of each well were plated on tryptic soy agar (TSA). TSA plates were incubated for 37° C. for 24 hours after which the number of CFU were counted and used to calculate the CFU/mL that remained after exposure to varying concentrations of compound. This procedure was repeated n=8 times for each concentration of antimicrobial.

[2] = tested on: A. baumannii; experiment: as above; format: cell-based, Acinetobacter baumannii
Protocol: as §1, §2
A 0.5 McFarland of A. baumannii is made. A 0.5 McFarland is a measure of turbidity in a liquid sample that contains approximately 7.5×10^7 CFU/mL. The 0.5 McFarland standard is diluted in CAMHB and 50 μL of broth is added to a well of a 96-well plate. In addition, 50 μL of CAMHB that contains a desired concentration of antimicrobial is added to the well for a final volume of 100 μL and a final concentration of approximately 5×10^4 CFU/well (which equates to approximately 5×10^5 CFU/mL). Each well contains a desired amount of CZ compound in order to experimentally determine the MIC. Each 96-well plate is incubated at 37° C. for 24 hours. The contents of each well is plated on tryptic soy agar (TSA). TSA plates is incubated at 37° C. for 24 hours after which the number of CFUs is counted and used to calculate the CFU/mL that remain after exposure to varying concentrations of compound. This procedure is repeated n=8 times for each concentration of antimicrobial. […]

[3] = tested on: MRSA biofilm; experiment: EBEC, high number biofilms on PEEK membranes (10^9 to 10^2 CFU/PEEK membrane in 24 hours); format: cell-based, methicillin-resistant Staphylococcus aureus; conditions: for EBEC, MRSA: Table 4
Protocol: In addition to determining the MIC and the MBEC of polyamine compounds against planktonic bacteria and low number biofilms, our group wanted to determine the efficacy of polyamine compounds against high number biofilms. To do so, biofilms were grown on the surface of polyetheretherketone (PEEK) membranes using a membrane biofilm reactor. This reactor is similar to the CDC biofilm reactor, but rather than growing biofilms on coupon surfaces, the reactor was modified to hold PEEK membranes. In short, to grow biofilms within this system, 500 mL of brain heart infusion (BHI) broth were inoculated with 1 mL of a 0.5 McFarland. The reactor was placed on a hot plate set at 34° C. and the bacteria were grown under batch conditions for 24 hours. Following this protocol, biofilms typically grow to 10^9 CFU/PEEK membrane. […] A solution of 10% BHI was then flowed through the reactor at a rate of 6.94 mL/min for an additional 24 hours. PEEK membranes were then removed and placed into 2 mL of CAMHB that contained a desired concentration of polyamine compound or antibiotic. The EBEC was defined as the concentration of antimicrobial required to reduce a biofilm from approximately 10^9 CFU/PEEK membrane to approximately 10^2 CFU/PEEK membrane in a 24-hour period.
In addition to determining the MIC and the MBEC of compounds against planktonic bacteria and low number biofilms, the efficacy of the compounds of the invention against high number biofilms is determined. To do so, biofilms are grown on the surface of PEEK membranes using a membrane biofilm reactor (Williams, D. L., Haymond, B. S. & Bloebaum, R. D. Use of delrin plastic in a modified CDC biofilm reactor. Res J Microbiol 6, 425-429 (2011); Williams, D. L., Woodbury, K. L., Haymond, B. S., Parker, A. E. & Bloebaum, R. D. A modified CDC biofilm reactor to produce mature biofilms on the surface of PEEK membranes for an in vivo animal model application. Curr Microbiol 62, 1657-1663 (2011); Williams, D. L. et al., In Vivo Efficacy of a Silicone—Cationic Steroid Antimicrobial Coating to Prevent Implant-Related Infection. Biomaterials 33, 8641-8656 (2012); Williams, D. L. et al., Experimental model of biofilm implant-related osteomyelitis to test combination biomaterials using biofilms as initial inocula. J Biomed Mat Res A 100, 1888-1900 (2012)). This reactor is similar to the CDC biofilm reactor, but rather than growing biofilms on coupon surfaces, the reactor was modified to hold PEEK membranes. In short, to grow biofilms within this system, 500 mL of brain heart infusion (BHI) broth is inoculated with 1 mL of a 0.5 McFarland. The reactor is placed on a hot plate set at 34° C. and the bacteria grown under batch conditions for 24 hours. A solution of 10% BHI will then be flowed through the reactor at a rate of 6.94 mL/min for an additional 24 hours. Following this protocol, biofilms typically grow to 10^9 CFU/PEEK membrane. PEEK membranes is removed and placed into 2 mL of CAMHB that contain a desired concentration of the test compound. The EBEC is defined as the concentration of antimicrobial required to reduce a biofilm from approximately 10^9 CFU/PEEK membrane to approximately 10^2 CFU/PEEK membrane in a 24-hour period.
EBEC data were collected to determine the efficacy of CZ-52, CZ-58 and traditional antibiotics against high number biofilms containing approximately 10^9 CFU grown on the surface of a polyetheretherketone (PEEK) membrane.

[4] = Table 3A, first P. aeruginosa column
[5] = Acinetobacter baumannii, Table 3A
[6] = Acinetobacter baumannii, Table 4

Molecule | MIC [1, 4] | MIC [2, 5] | MIC [2, 6] | EBEC, MRSA [3] | reduction of MRSA biofilms ([3]; at 250 μg/mL, 24-hour period) | MIC, A. baumannii ([2]; Table 3A) | MIC ([2]; Table 4) | MIC, A. baumannii ([2]; Table 4) | MIC ([1]; Table 5, class symbols)
NCCCNCCCNCc1cc(CNCCCNCCCN)cc(CNCCCNCCCN)c1 [CZ-52] | 17 µg/mL | ~25 µg/mL | 400 µg/mL and 800 µM | 250 μg/mL and 500 μM | greater than 7 log10 units |  |  |  | 
Polymyxin B sulfate [reference compound] |  |  |  |  |  | 2 µg/mL | 0.7 µM | 1 µg/mL | 
NCCCNCCCNCc1cccc(CNCCCNCCCN)c1 [CZ-25] | 50 µg/mL | 150 µg/mL | 150 µg/mL and 411 µM | > 5,000 μg/mL and 13,715 μM |  |  |  |  | > 100 µM
NCCCNCCCNCc1cc(CNCCCNCCCN)cc(-c2ccccc2)c1 [CZ-58] |  |  | 30 µg/mL and 68 µM | 1,500 μg/mL and 3,403 μM |  |  |  |  | < 50 µM
